Assays:
[1] = molecular target: 5-HT2C (Homo sapiens, UniProt P28335); assay: Receptor binding, [3H]-Mesulergine; details: read-out: % Inhibition of binding by D01 (10 μmol/L)
[2] = test system: CRS mice; assay: FST in chronic restraint stress; format: in vivo, mouse
[3] = molecular target: D3 (Homo sapiens, UniProt P35462); assay: Receptor binding, [3H]-Spiperone; details: read-out: % Inhibition of binding by D01 (10 μmol/L)
[4] = molecular target: H3 (Homo sapiens, UniProt Q9Y5N1); assay: Receptor binding, [3H]-Methylhistamine; details: read-out: % Inhibition of binding by D01 (10 μmol/L)
[5] = test system: hippocampal slices, CA1; assay: LTP recording; format: in vivo, mouse; details: 30 mg/kg i.p. + scopolamine 1 mg/kg i.p.
[6] = test system: normal mice; assay: Novel object recognition; format: in vivo, mouse
[7] = molecular target: M1 (Homo sapiens, UniProt P11229); assay: Receptor binding, [3H]-QNB; details: read-out: % Inhibition of binding by D01 (10 μmol/L)
[8] = molecular target: SERT (Rattus norvegicus, UniProt P31652); assay: [3H]5-HT uptake by crude synaptosomes; format: biochemical
[9] = molecular target: H1 (Homo sapiens, UniProt P35367); assay: Receptor binding, [3H]-Pyrilamine
[10] = molecular target: 5-HT2A (Homo sapiens, UniProt P28223); assay: Receptor binding, [3H]-Ketanserin; details: read-out: % Inhibition of binding by D01 (10 μmol/L)
[11] = molecular target: D2 (Homo sapiens, UniProt P14416); assay: Receptor binding, [3H]-Spiperone; details: read-out: % Inhibition of binding by D01 (10 μmol/L)
[12] = molecular target: α1; assay: Receptor binding, [3H]-Prazosin
[13] = molecular target: Sigma-1 (Homo sapiens, UniProt Q99720); assay: Receptor binding, [3H]-Pentazocine; details: read-out: % Inhibition of binding by D01 (10 μmol/L)
[14] = molecular target: serotonin transporter (SERT) (Rattus norvegicus, UniProt P31652); format: binding
[15] = molecular target: KCNQ2/3 channels (Homo sapiens, UniProt O43525+O43526); format: cell-based
[16] = test system: α2; assay: Receptor binding, [3H]-Rauwolscine; details: α2, 10 μmol/L
[17] = test system: NMDA; assay: Receptor binding, [3H]-MK801
[18] = test system: CRS mice; assay: Morris water maze; format: in vivo, mouse
[19] = test system: hippocampal neurons; assay: Resting membrane potential and firing of cultured hippocampal neurons; format: cell-based, rat; details: 100 μmol/L
[20] = test system: animals; assay: Observation of epileptic behavior in treated animals; format: in vivo; details: up to 100 mg/kg
[21] = molecular target: D1 (Homo sapiens, UniProt P21728); assay: Receptor binding, [3H]-SCH23390; details: read-out: % Inhibition of binding by D01 (10 μmol/L)
[22] = test system: mice; assay: Forced swimming test; format: in vivo, mouse; details: i.g., 1 h before test, doses 10, 30, 100 mg/kg
[23] = test system: mice; assay: Tail suspension test; format: in vivo, mouse; details: i.g., 60 min before test, doses 10, 30, 100 mg/kg
[24] = test system: native KCNQ/M channels; assay: Whole-cell recording of native M current in cultured hippocampal neurons; details: measured at −60 mV
[25] = test system: scopolamine-treated mice; assay: NOR in scopolamine-induced cognitive deficit; format: in vivo, mouse
[26] = molecular target: 5-HT1B (Homo sapiens, UniProt P28222); assay: Receptor binding, [3H]-GR-125743; details: read-out: % Inhibition of binding by D01 (10 μmol/L)
[27] = molecular target: 5-HT1A (Homo sapiens, UniProt P08908); assay: Receptor binding, [3H]-8-OH-DPAT; details: read-out: % Inhibition of binding by D01 (10 μmol/L)
[28] = test system: CRS mice; assay: TST in chronic restraint stress; format: in vivo, mouse
[29] = fluoxetine 20 mg/kg i.g., 21 days

Chain of H1 (P35367 whole entry): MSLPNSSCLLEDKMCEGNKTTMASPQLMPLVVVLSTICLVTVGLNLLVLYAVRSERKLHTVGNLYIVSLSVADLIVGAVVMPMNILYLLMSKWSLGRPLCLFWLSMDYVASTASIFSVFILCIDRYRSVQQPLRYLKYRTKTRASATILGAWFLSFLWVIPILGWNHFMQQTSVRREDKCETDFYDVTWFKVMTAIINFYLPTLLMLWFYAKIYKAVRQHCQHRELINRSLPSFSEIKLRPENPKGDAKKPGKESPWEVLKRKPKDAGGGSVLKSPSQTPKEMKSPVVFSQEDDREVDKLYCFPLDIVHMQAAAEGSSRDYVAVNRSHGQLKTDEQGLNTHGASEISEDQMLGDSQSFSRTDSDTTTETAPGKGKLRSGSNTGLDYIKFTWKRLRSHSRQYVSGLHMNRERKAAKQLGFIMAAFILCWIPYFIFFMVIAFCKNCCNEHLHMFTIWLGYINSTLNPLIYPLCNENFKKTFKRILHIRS
Chain of KCNQ2/3 channels (O43525 whole entry): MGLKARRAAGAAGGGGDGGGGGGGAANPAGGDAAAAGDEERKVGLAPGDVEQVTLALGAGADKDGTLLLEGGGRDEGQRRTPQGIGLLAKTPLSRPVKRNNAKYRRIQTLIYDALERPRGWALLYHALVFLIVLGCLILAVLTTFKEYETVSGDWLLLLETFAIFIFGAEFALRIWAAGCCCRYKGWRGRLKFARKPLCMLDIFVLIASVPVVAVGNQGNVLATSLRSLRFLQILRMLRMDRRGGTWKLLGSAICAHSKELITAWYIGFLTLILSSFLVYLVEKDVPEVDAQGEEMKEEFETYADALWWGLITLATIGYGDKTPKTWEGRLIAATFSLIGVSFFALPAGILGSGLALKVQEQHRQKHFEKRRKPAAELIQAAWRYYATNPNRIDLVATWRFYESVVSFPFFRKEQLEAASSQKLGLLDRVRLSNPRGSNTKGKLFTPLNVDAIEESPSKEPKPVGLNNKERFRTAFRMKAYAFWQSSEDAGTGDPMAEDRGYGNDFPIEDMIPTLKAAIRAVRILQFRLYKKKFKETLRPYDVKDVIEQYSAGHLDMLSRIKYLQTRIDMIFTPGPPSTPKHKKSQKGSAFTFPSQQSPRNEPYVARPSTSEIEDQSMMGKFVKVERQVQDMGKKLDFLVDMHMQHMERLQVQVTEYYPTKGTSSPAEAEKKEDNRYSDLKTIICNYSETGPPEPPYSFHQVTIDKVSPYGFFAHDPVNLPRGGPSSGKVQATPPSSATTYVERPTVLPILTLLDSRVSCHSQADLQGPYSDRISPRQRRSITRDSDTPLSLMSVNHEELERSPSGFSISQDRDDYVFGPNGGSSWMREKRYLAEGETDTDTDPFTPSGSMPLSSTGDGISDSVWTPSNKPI
Chain of KCNQ2/3 channels (O43526 whole entry): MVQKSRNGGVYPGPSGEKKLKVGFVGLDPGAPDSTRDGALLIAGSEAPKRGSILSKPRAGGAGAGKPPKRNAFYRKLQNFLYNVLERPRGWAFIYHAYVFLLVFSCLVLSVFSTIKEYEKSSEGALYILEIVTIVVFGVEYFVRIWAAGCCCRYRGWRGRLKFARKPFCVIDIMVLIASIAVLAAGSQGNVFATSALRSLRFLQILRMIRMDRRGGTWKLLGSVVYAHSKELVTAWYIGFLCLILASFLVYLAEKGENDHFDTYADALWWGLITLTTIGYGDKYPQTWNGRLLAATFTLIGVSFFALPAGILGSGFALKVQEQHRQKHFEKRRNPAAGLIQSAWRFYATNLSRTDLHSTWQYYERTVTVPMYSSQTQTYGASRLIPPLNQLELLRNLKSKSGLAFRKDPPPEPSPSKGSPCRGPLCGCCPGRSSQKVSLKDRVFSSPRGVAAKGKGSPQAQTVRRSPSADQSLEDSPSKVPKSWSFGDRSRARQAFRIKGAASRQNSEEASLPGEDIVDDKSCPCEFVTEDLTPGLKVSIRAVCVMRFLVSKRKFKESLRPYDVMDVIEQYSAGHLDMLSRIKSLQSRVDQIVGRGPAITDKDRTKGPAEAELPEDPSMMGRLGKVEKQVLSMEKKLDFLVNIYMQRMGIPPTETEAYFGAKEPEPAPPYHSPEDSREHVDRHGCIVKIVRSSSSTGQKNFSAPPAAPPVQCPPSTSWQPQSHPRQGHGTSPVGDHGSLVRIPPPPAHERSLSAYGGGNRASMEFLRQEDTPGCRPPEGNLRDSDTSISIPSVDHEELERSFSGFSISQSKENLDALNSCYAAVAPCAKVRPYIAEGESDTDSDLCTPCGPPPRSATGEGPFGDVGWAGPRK
Chain of H3 (Q9Y5N1 whole entry): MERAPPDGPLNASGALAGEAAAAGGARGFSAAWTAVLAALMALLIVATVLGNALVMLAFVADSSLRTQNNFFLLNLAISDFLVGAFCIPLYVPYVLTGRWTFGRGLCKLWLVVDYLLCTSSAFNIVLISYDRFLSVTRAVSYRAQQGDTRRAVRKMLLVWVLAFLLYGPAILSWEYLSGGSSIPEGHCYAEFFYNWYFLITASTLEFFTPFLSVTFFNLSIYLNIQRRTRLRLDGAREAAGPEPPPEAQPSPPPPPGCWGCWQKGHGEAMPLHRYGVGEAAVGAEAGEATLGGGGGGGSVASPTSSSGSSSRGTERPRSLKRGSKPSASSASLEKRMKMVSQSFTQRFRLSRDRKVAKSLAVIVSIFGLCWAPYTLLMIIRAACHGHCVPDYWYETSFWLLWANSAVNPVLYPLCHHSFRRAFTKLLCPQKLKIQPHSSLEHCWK
Chain of 5-HT2A (P28223 whole entry, species assumed): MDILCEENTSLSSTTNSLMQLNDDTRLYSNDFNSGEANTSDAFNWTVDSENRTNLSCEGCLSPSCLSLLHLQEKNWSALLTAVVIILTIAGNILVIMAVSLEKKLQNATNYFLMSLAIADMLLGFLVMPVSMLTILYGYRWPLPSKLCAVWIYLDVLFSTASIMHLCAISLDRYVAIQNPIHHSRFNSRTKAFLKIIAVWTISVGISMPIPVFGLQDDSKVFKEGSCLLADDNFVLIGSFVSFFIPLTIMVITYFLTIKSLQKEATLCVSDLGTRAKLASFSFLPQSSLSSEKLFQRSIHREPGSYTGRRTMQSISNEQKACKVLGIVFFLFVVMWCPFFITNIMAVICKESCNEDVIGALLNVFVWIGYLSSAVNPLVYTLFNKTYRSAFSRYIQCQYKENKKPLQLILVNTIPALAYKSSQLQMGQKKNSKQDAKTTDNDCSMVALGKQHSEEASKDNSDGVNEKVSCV
Chain of 5-HT2C (P28335 33-458, species assumed): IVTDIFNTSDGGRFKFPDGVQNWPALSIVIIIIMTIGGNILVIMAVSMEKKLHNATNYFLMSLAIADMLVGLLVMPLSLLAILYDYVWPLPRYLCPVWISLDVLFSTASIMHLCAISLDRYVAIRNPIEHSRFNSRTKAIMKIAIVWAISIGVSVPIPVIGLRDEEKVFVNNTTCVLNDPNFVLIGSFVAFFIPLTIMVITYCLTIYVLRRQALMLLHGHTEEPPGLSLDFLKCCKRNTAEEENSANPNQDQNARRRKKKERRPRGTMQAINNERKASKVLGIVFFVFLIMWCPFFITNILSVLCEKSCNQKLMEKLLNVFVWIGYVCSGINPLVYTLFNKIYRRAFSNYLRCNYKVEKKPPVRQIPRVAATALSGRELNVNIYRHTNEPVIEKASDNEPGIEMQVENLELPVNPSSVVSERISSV
Chain of D1 (P21728 whole entry): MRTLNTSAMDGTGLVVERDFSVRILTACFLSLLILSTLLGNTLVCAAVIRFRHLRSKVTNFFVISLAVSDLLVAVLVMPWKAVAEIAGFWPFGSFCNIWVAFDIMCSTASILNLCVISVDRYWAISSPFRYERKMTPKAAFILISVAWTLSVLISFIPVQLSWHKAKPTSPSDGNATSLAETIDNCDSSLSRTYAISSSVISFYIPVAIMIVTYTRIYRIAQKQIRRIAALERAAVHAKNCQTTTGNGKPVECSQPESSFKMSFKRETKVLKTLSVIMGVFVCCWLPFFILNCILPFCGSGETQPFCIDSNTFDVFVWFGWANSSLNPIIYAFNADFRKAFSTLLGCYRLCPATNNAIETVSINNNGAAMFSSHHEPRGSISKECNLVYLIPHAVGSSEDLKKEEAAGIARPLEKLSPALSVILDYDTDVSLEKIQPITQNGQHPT
Chain of D2 (P14416 whole entry): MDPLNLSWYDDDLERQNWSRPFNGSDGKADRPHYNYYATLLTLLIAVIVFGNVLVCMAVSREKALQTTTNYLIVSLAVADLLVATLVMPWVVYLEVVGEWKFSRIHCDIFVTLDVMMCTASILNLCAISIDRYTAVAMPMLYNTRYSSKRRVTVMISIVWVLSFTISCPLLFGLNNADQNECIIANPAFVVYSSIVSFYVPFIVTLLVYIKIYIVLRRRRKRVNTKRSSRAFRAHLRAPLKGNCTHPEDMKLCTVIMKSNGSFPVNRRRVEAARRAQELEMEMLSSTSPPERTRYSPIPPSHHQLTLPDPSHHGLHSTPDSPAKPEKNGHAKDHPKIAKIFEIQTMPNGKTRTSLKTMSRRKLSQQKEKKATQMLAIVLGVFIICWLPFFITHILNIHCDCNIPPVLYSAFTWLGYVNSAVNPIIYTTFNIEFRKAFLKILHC
Chain of 5-HT1B (P28222 whole entry, species assumed): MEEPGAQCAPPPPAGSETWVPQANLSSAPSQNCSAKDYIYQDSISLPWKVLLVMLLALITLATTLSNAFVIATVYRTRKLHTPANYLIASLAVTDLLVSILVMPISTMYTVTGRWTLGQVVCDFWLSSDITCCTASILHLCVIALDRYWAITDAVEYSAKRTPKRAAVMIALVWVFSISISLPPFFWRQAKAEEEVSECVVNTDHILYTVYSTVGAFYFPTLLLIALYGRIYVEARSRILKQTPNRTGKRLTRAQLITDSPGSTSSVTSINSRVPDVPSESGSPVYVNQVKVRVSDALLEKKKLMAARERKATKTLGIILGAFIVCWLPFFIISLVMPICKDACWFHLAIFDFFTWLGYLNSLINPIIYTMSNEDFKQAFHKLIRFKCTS

Compound: CC(CN(C)C)C(Oc1cccc2ccccc12)c1cccs1 (centres unmarked) [Compound D01, N,N,2-trimethyl-3-(1-naphthyloxy)-3-(thien-2-yl) propan-1-amine]
- inhibition at 10 µM [1]: 38%
- immobility time in FST ([2]; 20 mg/kg i.g., 21 days (D01)): 54.53 ± 18.11 s
- immobility time in FST ([2]; 40 mg/kg i.g., 21 days): 44.62 ± 17.03 s
- inhibition at 10 µM [3]: 32.8%
- inhibition at 10 µM [4]: 13.9%
- effect on scopolamine-induced LTP inhibition [5]: significantly reversed
- time spent on familiar object ([6]; 30 mg/kg i.g.): 7.20 ± 2.73 s
- time spent on novel object ([6]; 30 mg/kg i.g.): 18.10 ± 6.42 s
- time spent on familiar object ([6]; 100 mg/kg i.g.): 10.90 ± 2.50 s
- time spent on novel object ([6]; 100 mg/kg i.g.): 21.90 ± 4.84 s
- inhibition at 10 µM [7]: 24.7%
- IC50 [8]: 0.045 ± 0.009 µM
- IC50 [9]: > 10 µM
- inhibition at 10 µM ([9]; read-out: % Inhibition of binding by D01 (10 μmol/L)): 61.8%
- inhibition at 10 µM [10]: 25.1%
- inhibition at 10 µM [11]: 16.1%
- IC50 ([12]; read-out: IC50 for D01, α1): > 10 µM
- % Inhibition of binding by D01 (10 μmol/L) ([12]; α1, 10 μmol/L): 56.21%
- inhibition at 10 µM [13]: 34%
- Ki [14]: 0.0301 ± 0.0069 µM
- IC50 [15]: 10.1 ± 2.4 µM
- % Inhibition of binding by D01 (10 μmol/L) [16]: 38.43%
- % Inhibition of binding by D01 (10 μmol/L) [17]: 9.83%
- distance traveled while crossing the target zone, probe trial Day 5 ([18]; 10 mg/kg i.g.): 4748.7 ± 308.1 cm
- escape latency after four days of training ([18]; 10 mg/kg i.g.): 37.3 ± 3.1 s
- initial escape latency ([18]; 10 mg/kg i.g.): 51.1 ± 2.5 s
- distance traveled while crossing the target zone, probe trial Day 5 ([18]; 20 mg/kg i.g.): 4501.3 ± 266.5 cm
- escape latency after four days of training ([18]; 20 mg/kg i.g.): 32.2 ± 3.6 s
- initial escape latency ([18]; 20 mg/kg i.g.): 45.7 ± 3.7 s
- time in the target quadrant, probe trial Day 5 ([18]; 20 mg/kg i.g.): 15.8 ± 0.8 s
- distance traveled while crossing the target zone, probe trial Day 5 ([18]; 40 mg/kg i.g.): 4357.5 ± 310.9 cm
- escape latency after four days of training ([18]; 40 mg/kg i.g.): 30.1 ± 3.9 s
- initial escape latency ([18]; 40 mg/kg i.g.): 42.6 ± 3.5 s
- time in the target quadrant, probe trial Day 5 ([18]; 40 mg/kg i.g.): 16.2 ± 0.8 s
- effect on resting membrane potential [19]: depolarizes
- significant increase of firing frequency [19]: did not observe
- epileptic behavior [20]: did not observe
- inhibition at 10 µM [21]: 16.3%
- minimal effective dose (MED), immobility in FST [22]: 30 mg/kg
- minimal effective dose (MED), immobility in TST [23]: 10 mg/kg
- effect on native M current ([24]; 100 μmol/L): dramatically inhibits
- discrimination index (DI) ([25]; scopolamine 1 mg/kg i.p. + 10 mg/kg i.g.): 0.21 ± 0.08
- discrimination index (DI) ([25]; scopolamine 1 mg/kg i.p. + 30 mg/kg i.g.): 0.36 ± 0.03
- discrimination index (DI) ([25]; scopolamine 1 mg/kg i.p. + 100 mg/kg i.g.): 0.45 ± 0.05
- inhibition at 10 µM [26]: 12%
- inhibition at 10 µM [27]: -24.1%
- immobility time in TST ([28]; 20 mg/kg i.g., 21 days (D01)): 87.61 ± 12.04 s
- immobility time in TST ([28]; 40 mg/kg i.g., 21 days): 68.17 ± 20.30 s

Compound: CCN(C)C(=O)Oc1cccc([C@H](C)N(C)C)c1 [rivastigmine, reference compound]
- improvement in scopolamine-induced cognitive impairment ([25]; scopolamine 1 mg/kg i.p. + 0.01 mg/kg s.c.): did not show any noticeable improvement

Compound: CCOC(=O)Nc1ccc(NCc2ccc(F)cc2)cc1N [RTG, retigabine]
- effect on native M current ([24]; 10 μmol/L): activated

Compound: CNCCC(Oc1ccc(C(F)(F)F)cc1)c1ccccc1 (centres unmarked) [fluoxetine, reference compound]
- immobility time in FST [2, 29]: 18.7 ± 6.3 s
- difference in time spent on novel and familiar objects ([6]; fluoxetine 100 mg/kg i.g.): no obvious difference
- effect on escape latency ([18]; fluoxetine 20 mg/kg i.g.): did not show any significant effect
- effect on time and distance in target quadrant, probe trial Day 5 ([18]; fluoxetine 20 mg/kg i.g.): did not exhibit any noticeable effects
- improvement in scopolamine-induced cognitive impairment ([25]; scopolamine 1 mg/kg i.p. + fluoxetine 100 mg/kg i.g.): did not show any noticeable improvement
- immobility time in TST [28, 29]: 69.8 ± 14.9 s

Compound: O=C1c2ccccc2C(Cc2ccncc2)(Cc2ccncc2)c2ccccc21 [XE991, reference compound]
- reduction of immobility in FST ([2]; 1 mg/kg s.c.): not statistically significant
- time spent on familiar object ([6]; 1 mg/kg s.c.): 16.50 ± 2.63 s
- time spent on novel object ([6]; 1 mg/kg s.c.): 38.40 ± 3.80 s
- effect on time and distance in target quadrant, probe trial Day 5 ([18]; XE991 1 mg/kg s.c.): did not exhibit any noticeable effects
- escape latency after four days of training ([18]; XE991 1 mg/kg s.c.): 33.4 ± 3.4 s
- initial escape latency ([18]; XE991 1 mg/kg s.c.): 48.9 ± 3.4 s
- effect on native M current ([24]; 3 μmol/L): inhibited
- discrimination index (DI) ([25]; scopolamine 1 mg/kg i.p. + XE991 1 mg/kg s.c.): 0.36 ± 0.04
- reduction of immobility in TST ([28]; 1 mg/kg s.c.): not statistically significant

Reference: paper PMC10935023 (Acta Pharmaceutica Sinica. B, 2023)
